Laboratory results taken from article PMC9469208 (Journal of Medicinal Chemistry, 2022).
Values joined by “and” are separate entries in the source; they are usually repeats but may differ in a detail not shown here. Identical values can stand only once.

What was measured:
human SV2A = molecular target: T1, human SV2A (Homo sapiens, UniProt Q7L0J3); experiment: SV2A radioligand binding assay ([3H]brivaracetam); settings: [3H]brivaracetam 3 nM, human SV2A-expressing CHO cell lysate
T1 construct: expressed in transfected cells; host or cells: CHO cells
Method: (§1) The competitive radioligand-binding assay was essentially performed as previously described.[96],[97] The SV2A-containing preparations, either cell lysate of human SV2A-expressing CHO cells, or membrane preparations of mouse brain cortex, were incubated with the radioligand [^3H]brivaracetam (3 nM) in the absence or presence of test compound for 4 h. Incubation was performed in 500 μL of Tris-buffer (50 mM Tris–HCl, pH 7.4) containing 2 mM MgCl2 at 4 °C on a rocking shaker. […] The test compounds were dissolved in dimethyl sulfoxide (DMSO) and further diluted in DMSO. The DMSO concentration in all vials was adjusted to 2%. The separation of bound and unbound radioligand was performed via rapid vacuum filtration using GF/C glass fiber filters that had been presoaked in Tris-buffer containing 0.1% polyethyleneimine for 30 min. The filters were rapidly washed three times with about 1 mL of Tris-buffer each and subsequently placed in a drying oven at 50 °C for 90 min. The filters were then transferred to scintillation vials and 2.5 mL of scintillation cocktail (ProSafe FC+, Meridian Biotechnologies Ltd.) was added. After an incubation period of at least 9 h, radioactivity was measured in a scintillation counter. Results were analyzed by GraphPad Prism 7.0.

mouse SV2A = molecular target: T2, mouse SV2A (Mus musculus, UniProt Q9JIS5); experiment: SV2A radioligand binding assay ([3H]brivaracetam); settings: mouse brain cortex membranes
T2 construct: membrane preparations of mouse brain cortex; from tissue; host or cells: mouse brain cortex membranes
Method: as §1

recombinant human CYP3A4 = molecular target: T3, recombinant human CYP3A4 (Homo sapiens, UniProt P08684); experiment: CYP3A4 P450-Glo assay; assay type: in vitro ADME
T3 construct: purchased Cerep (Eurofins), Poitiers, France; Promega P450-Glo; in-house COS-7 uptake assays
Excerpt: The luminescent CYP3A4 P450-Glo and CYP2D6 P450-Glo assays and protocols were provided by Promega (Madison, WI).[98] The procedures were provided by the manufacturer and were similar as previously reported for the racemate I.[29]

GlyRA1 = molecular target: T4, GlyRA1 (Homo sapiens, UniProt P23415); assay type: cell-based
T4 construct: purchased Cerep (Eurofins), Poitiers, France; Promega P450-Glo; in-house COS-7 uptake assays
T4 sequence (P23415 29-457): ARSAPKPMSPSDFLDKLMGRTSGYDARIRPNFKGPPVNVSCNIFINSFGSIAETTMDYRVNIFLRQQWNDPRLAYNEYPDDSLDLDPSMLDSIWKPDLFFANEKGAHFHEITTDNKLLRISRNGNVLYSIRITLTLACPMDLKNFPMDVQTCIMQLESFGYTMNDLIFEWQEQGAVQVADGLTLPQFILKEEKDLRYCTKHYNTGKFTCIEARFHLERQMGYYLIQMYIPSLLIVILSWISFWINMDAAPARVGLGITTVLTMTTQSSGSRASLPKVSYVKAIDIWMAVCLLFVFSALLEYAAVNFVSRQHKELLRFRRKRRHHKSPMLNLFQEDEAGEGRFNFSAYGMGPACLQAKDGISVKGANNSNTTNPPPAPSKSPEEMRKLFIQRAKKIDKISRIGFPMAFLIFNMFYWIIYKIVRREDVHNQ

Glutamate, NMDA, Glycine = Glutamate, NMDA, Glycine (Rattus norvegicus, UniProt P35439); experiment: Glutamate NMDA glycine [3H]MDL 105,519 binding; settings: read-out: % Inhibition of control specific binding, Glutamate, NMDA, Glycine [3H] MDL 105,519
Excerpt: (§2) The general information is listed in the Supporting Information.

[1] = molecular target: T5, GLYT1 Glycine Transporter (Homo sapiens, UniProt P48067); experiment: GLYT1 glycine transporter binding; settings: rat brain, listed as (R)-7 [(R)-AS-1]
T5 construct: purchased Cerep (Eurofins), Poitiers, France; Promega P450-Glo; in-house COS-7 uptake assays
Excerpt: as §2

mGlu2 (h) = molecular target: T6, mGlu2 (h) (Homo sapiens, UniProt Q14416); experiment: mGlu2 (h) binding (antagonist radioligand); settings: human recombinant (Chem-1 cells), read-out: % Inhibition of control specific binding, mGlu2 (h)
T6 construct: purchased Cerep (Eurofins), Poitiers, France; Promega P450-Glo; in-house COS-7 uptake assays
Excerpt: as §2

mGluR1 = molecular target: T7, mGluR1 (Rattus norvegicus, UniProt P23385); experiment: mGluR1 binding (agonist radioligand); settings: read-out: % Inhibition of control specific binding, mGluR1
T7 construct: purchased Cerep (Eurofins), Poitiers, France; Promega P450-Glo; in-house COS-7 uptake assays

mGluR5 (h) = molecular target: T8, mGluR5 (h) (Homo sapiens, UniProt P41594); experiment: mGluR5 (h) binding (agonist radioligand); settings: human recombinant, read-out: % Inhibition of control specific binding, mGluR5 (h)
T8 construct: purchased Cerep (Eurofins), Poitiers, France; Promega P450-Glo; in-house COS-7 uptake assays
Excerpt: as §2

Acetylcholinesterase (h) = molecular target: T9, Acetylcholinesterase (h) (Homo sapiens, UniProt P22303); experiment: Acetylcholinesterase (h) enzymatic activity; assay type: biochemical; settings: read-out: % Inhibition, Acetylcholinesterase (h) enzymatic activity
T9 construct: purchased Cerep (Eurofins), Poitiers, France; Promega P450-Glo; in-house COS-7 uptake assays
Excerpt: as §2

D1 (h) = molecular target: T10, D1 (h) (Homo sapiens, UniProt P21728); experiment: D1 (h) functional assay; assay type: cell-based
T10 construct: purchased Cerep (Eurofins), Poitiers, France; Promega P450-Glo; in-house COS-7 uptake assays
Excerpt: as §2

sst4 (h) = molecular target: T11, sst4 (h) (Homo sapiens, UniProt P31391); experiment: sst4 (h) functional assay; assay type: cell-based
T11 construct: purchased Cerep (Eurofins), Poitiers, France; Promega P450-Glo; in-house COS-7 uptake assays
Excerpt: as §2

5-HT6 (h) = molecular target: T12, 5-HT6 (h) (Homo sapiens, UniProt P50406); experiment: 5-HT6 (h) functional assay; assay type: cell-based
T12 construct: purchased Cerep (Eurofins), Poitiers, France; Promega P450-Glo; in-house COS-7 uptake assays
Excerpt: as §2

5-HT7 (h) = molecular target: T13, 5-HT7 (h) (Homo sapiens, UniProt P34969); experiment: 5-HT7 (h) functional assay; assay type: cell-based
T13 construct: purchased Cerep (Eurofins), Poitiers, France; Promega P450-Glo; in-house COS-7 uptake assays
Excerpt: as §2

Dopamine transporter (h) = molecular target: T14, Dopamine transporter (h) (Homo sapiens, UniProt Q01959); experiment: Dopamine transporter (h) (antagonist radioligand); assay type: binding; settings: read-out: % Inhibition, Dopamine transporter (h)
T14 construct: purchased Cerep (Eurofins), Poitiers, France; Promega P450-Glo; in-house COS-7 uptake assays
Excerpt: as §2

[2] = molecular target: T15, Norepinephrine transporter (h) (Homo sapiens, UniProt P23975); experiment: Norepinephrine transporter (h) (antagonist radioligand); assay type: binding; settings: read-out: % Inhibition, Norepinephrine transporter (h)
T15 construct: purchased Cerep (Eurofins), Poitiers, France; Promega P450-Glo; in-house COS-7 uptake assays
Excerpt: as §2

EAAT1 = EAAT1 (Homo sapiens, UniProt P43003); settings: transfected COS-7 cells
EAAT3 = EAAT3 (Homo sapiens, UniProt P43005); settings: transfected COS-7 cells
[3] = 100 mg/kg i.p., mice
hERG potassium channel = hERG potassium channel (Homo sapiens, UniProt Q12809); experiment: in vitro
[4] = 100 μM, listed as (R)-7 [(R)-AS-1]
[5] = 10 μM, listed as (R)-7 [(R)-AS-1]

T11 sequence (P31391 whole entry): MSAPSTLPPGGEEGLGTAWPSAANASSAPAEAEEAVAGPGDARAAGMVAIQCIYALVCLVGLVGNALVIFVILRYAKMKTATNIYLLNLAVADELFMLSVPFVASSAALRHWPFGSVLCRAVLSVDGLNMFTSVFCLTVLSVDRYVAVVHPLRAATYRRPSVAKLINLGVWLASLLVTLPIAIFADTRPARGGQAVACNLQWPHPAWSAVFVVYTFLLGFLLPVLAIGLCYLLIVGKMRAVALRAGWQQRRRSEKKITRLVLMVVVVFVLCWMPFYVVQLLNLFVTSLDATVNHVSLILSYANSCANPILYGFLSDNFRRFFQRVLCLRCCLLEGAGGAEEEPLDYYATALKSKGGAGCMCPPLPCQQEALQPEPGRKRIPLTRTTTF
T13 sequence (P34969 whole entry): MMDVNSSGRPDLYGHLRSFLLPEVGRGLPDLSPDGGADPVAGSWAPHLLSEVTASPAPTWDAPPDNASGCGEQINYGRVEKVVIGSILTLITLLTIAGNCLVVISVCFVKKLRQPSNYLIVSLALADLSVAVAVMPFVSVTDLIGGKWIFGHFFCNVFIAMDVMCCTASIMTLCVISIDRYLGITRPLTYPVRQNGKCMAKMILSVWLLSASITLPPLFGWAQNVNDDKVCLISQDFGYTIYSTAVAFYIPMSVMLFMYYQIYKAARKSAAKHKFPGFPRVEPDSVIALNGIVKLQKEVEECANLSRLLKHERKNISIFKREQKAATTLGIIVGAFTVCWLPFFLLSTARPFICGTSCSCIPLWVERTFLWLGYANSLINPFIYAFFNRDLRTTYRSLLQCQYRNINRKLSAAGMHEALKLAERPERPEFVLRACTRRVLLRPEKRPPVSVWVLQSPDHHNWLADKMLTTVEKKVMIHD
T10 sequence (P21728 whole entry): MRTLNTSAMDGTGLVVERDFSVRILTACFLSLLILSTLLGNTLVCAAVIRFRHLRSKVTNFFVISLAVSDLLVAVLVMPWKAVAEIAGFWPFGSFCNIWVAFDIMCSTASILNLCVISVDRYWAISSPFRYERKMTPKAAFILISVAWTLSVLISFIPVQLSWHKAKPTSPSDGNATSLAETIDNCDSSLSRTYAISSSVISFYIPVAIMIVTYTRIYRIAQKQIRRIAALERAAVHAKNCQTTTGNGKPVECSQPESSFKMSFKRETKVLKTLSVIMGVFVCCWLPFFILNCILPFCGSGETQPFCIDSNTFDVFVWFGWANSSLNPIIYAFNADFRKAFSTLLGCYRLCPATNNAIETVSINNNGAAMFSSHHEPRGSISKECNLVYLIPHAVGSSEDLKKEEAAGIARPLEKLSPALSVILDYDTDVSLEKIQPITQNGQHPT
T5 sequence (P48067 whole entry): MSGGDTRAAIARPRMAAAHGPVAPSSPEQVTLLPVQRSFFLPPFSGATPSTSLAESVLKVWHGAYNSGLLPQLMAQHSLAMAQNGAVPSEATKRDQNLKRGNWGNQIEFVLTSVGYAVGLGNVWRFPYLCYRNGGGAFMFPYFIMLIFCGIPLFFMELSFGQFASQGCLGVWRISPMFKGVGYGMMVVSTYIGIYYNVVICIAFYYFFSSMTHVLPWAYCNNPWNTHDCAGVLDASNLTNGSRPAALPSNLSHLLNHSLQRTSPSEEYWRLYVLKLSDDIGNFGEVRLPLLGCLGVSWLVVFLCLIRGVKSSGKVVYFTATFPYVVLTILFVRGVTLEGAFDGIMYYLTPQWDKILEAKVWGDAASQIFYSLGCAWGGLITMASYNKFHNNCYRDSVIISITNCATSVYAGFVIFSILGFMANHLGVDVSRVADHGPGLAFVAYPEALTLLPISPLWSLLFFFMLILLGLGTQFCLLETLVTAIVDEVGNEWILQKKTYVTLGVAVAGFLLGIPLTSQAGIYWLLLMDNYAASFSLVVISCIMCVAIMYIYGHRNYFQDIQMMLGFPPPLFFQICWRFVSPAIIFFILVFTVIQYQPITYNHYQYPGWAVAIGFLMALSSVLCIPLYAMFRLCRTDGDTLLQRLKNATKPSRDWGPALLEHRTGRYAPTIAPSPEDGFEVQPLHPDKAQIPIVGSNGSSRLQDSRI
T12 sequence (P50406 whole entry): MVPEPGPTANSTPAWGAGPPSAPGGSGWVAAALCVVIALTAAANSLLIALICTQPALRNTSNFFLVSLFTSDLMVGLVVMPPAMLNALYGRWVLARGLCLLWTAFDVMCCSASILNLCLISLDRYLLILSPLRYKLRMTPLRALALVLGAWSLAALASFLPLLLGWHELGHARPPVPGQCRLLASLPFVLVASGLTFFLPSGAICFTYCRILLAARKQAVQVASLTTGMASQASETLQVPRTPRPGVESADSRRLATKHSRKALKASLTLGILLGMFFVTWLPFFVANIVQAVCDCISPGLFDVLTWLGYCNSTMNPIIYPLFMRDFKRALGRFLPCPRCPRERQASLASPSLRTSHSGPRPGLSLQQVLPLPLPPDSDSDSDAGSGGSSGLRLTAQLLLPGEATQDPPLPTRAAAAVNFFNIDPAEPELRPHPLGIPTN
T3 sequence (P08684 whole entry): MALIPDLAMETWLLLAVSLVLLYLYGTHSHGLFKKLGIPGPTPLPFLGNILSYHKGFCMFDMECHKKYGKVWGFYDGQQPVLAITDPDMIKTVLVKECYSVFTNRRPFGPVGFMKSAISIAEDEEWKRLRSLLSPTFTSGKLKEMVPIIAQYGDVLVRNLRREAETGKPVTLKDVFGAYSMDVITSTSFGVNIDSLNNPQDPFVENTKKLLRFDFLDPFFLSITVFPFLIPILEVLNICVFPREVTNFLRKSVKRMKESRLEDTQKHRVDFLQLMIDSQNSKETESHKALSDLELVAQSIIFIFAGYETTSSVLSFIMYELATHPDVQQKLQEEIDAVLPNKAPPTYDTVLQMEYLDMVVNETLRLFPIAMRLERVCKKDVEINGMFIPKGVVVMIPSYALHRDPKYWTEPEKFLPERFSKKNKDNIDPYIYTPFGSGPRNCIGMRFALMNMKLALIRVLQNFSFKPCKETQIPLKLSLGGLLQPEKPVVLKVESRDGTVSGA
T1 sequence (Q7L0J3 whole entry): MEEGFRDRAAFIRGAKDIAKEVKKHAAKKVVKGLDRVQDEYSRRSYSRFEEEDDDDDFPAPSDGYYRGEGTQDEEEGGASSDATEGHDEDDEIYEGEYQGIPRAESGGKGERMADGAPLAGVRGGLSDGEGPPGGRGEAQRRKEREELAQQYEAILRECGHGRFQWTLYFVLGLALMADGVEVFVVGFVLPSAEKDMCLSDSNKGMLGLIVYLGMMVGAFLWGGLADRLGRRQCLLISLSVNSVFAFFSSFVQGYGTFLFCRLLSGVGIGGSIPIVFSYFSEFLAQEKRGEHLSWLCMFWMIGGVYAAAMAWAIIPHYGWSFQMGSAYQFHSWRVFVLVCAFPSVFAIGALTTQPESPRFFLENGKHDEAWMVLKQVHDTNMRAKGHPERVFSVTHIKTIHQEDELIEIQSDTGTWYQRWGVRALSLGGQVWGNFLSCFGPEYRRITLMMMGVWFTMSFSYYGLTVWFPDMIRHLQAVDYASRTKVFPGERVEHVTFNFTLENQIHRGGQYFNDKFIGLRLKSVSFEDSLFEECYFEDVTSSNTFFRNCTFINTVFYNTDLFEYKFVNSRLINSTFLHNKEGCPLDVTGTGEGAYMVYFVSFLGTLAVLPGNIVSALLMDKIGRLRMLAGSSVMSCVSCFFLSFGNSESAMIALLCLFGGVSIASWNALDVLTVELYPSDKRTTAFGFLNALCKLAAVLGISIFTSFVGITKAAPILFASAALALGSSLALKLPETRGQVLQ
T7 sequence (P23385 19-1199): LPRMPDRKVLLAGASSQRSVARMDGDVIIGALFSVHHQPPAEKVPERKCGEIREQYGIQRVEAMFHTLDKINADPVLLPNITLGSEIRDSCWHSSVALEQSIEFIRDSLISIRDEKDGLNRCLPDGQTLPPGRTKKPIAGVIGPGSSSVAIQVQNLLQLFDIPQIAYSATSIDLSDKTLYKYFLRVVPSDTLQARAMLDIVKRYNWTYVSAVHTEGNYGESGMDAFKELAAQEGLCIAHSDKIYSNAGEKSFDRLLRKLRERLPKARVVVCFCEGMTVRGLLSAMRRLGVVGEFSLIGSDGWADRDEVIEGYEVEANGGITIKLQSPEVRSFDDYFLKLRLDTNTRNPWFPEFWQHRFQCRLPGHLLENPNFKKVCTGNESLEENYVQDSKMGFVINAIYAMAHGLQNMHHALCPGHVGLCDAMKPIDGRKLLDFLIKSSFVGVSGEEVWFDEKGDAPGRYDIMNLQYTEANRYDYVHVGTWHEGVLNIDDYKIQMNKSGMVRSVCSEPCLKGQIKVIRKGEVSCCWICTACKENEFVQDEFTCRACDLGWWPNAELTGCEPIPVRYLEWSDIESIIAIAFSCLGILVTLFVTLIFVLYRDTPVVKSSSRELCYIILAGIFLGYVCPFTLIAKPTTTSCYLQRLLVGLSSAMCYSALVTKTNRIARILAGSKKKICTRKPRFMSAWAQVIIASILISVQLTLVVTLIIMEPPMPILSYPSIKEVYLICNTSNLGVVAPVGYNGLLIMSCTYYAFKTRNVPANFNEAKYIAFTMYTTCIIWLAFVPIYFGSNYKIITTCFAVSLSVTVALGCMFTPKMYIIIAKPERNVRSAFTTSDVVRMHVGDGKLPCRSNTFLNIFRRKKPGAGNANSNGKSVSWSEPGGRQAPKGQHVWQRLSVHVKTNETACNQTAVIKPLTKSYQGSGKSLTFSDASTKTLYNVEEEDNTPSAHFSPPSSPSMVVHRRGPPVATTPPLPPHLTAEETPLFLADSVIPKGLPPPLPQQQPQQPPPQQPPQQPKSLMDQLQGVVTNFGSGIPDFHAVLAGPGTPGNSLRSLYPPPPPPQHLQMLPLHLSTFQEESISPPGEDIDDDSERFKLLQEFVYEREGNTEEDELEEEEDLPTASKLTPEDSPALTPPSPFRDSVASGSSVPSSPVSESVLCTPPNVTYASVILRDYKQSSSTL
T2 sequence (Q9JIS5 whole entry): as the sequence (Q7L0J3 whole entry) above, with S62A, T71A, E144D, A154T, G440S, S482A, I572V, M634L counted along it

Q: With `C[C@H](C(=O)NCc1ccccc1)N1C(=O)CCC1=O` [(R)-7, (R)-N-Benzyl-2-(2,5-dioxopyrrolidin-1-yl)propanamide] as the molecule, how does the Ki (human SV2A) read?
A: The Ki was 275 µM and > 250 µM.

Q: What about the “Binding to mouse SV2A” value (mouse SV2A) of the same molecule?
A: The value was “no binding observed”.

Q: And the CYP3A4 activity (recombinant human CYP3A4; 10 μM, ± SD)?
A: Its CYP3A4 activity is 100.4 ± 4.2 % of control.

Q: What about the “effect on CYP3A4” value (recombinant human CYP3A4; only at the highest concentration of 25 μM) of the same molecule?
A: Its value is “slight inhibition”.

Q: And the “GlyRA1 agonist, % Control, Mean” value (GlyRA1)?
A: Its value is 1.94% and 1.94 (100 µM) %.

Q: What about the “GlyRA1 agonist, % Control, n1” value (GlyRA1) of the same molecule?
A: Its value is 1.83%.

Q: What about the “GlyRA1 agonist, % Control, n2” value (GlyRA1) of the same molecule?
A: Its value is 2.05%.

Q: And the inhibition at 10 µM (Glutamate, NMDA, Glycine)?
A: The inhibition at 10 µM was -3%.

Q: What about the “% Inhibition of control specific binding, GLYT1 Glycine Transporter” value ([1]; 10 μM) of the same molecule?
A: The value was -2.00% and -1.00%.

Q: And the “% Inhibition of control specific binding, GLYT1 Glycine Transporter” value ([1]; 100 μM)?
A: The value was -1.00% and -2.00%.

Q: What about the inhibition at 50 µM (mGlu2 (h)) of the same molecule?
A: The inhibition at 50 µM was -8%.

Q: And the inhibition at 10 µM (mGluR1; 10 μM, rat brain)?
A: Its inhibition at 10 µM is -6.72%.

Q: And the inhibition at 100 µM (mGluR1)?
A: Its inhibition at 100 µM is -6.72%.

Q: And the inhibition at 10 µM (mGluR5 (h))?
A: Its inhibition at 10 µM is -7.78%.

Q: And the inhibition at 10 µM (Acetylcholinesterase (h))?
A: Its inhibition at 10 µM is 1.59%.

Q: And the “% Effect, D1 (h) (Agonist effect)” value (D1 (h); [4])?
A: Its value is 1.70% and 1.70 (100 µM) %.

Q: And the inhibition at 100 µM (D1 (h); read-out: % Inhibition, D1 (h) (Antagonist effect))?
A: Its inhibition at 100 µM is -2.57%.

Q: What about the “% Effect, sst4 (h) (Agonist effect)” value (sst4 (h); [5]) of the same molecule?
A: Its value is -7.88% and -7.88 (10 µM) %.

Q: What about the inhibition at 50 µM (sst4 (h); 50 μM, read-out: % Inhibition, sst4 (h) (Antagonist effect)) of the same molecule?
A: The inhibition at 50 µM was 8.25%.

Q: And the “% Effect, 5-HT6 (h) (Agonist effect)” value (5-HT6 (h); [4])?
A: The value was -0.26% and -0.26 (100 µM) %.

Q: And the inhibition at 100 µM (5-HT6 (h); read-out: % Inhibition, 5-HT6 (h) (Antagonist effect))?
A: The inhibition at 100 µM was -6.42%.

Q: What about the “% Effect, 5-HT7 (h) (Agonist effect)” value (5-HT7 (h); [5]) of the same molecule?
A: The value was -4.26% and -4.26 (10 µM) %.

Q: And the inhibition at 10 µM (5-HT7 (h); read-out: % Inhibition, 5-HT7 (h) (Antagonist effect))?
A: The inhibition at 10 µM was -25%.

Q: And the inhibition at 100 µM (Dopamine transporter (h))?
A: The inhibition at 100 µM was -2.69%.

Q: And the inhibition at 100 µM [2]?
A: The inhibition at 100 µM was 3.01%.

Q: What about the “effect on EAAT1-mediated glutamate uptake” value (EAAT1) of the same molecule?
A: Its value is “no effects”.

Q: And the “effect on EAAT3-mediated glutamate uptake” value (EAAT3)?
A: The value was “no effects”.

Q: And the “AUC0–∞, brain” value ([3]; listed as (R)-7 [(R)-AS-1])?
A: Its value is 2813.0 μg·min/mL(g) and 2813.04 μg·min/mL(g).

Q: What about the “AUC0–∞, serum” value ([3]; listed as (R)-7 [(R)-AS-1]) of the same molecule?
A: The value was 4625.8 μg·min/mL(g) and 4625.78 μg·min/mL(g).

Q: What about the “Cmax, serum” value ([3]; listed as (R)-7 [(R)-AS-1]) of the same molecule?
A: Its value is 82.7 μg/mL(g) and 82.73 μg/mL(g).

Q: And the total clearance ([3]; noncompartmental approach)?
A: Its total clearance is “approx. 0.6 mL/min”.

Q: What about the inhibition at 100 µM (hERG potassium channel) of the same molecule?
A: The inhibition at 100 µM was -8.02%.
